In ChEMBL document CHEMBL1201862, “PubChem BioAssay data set” (2004):
Activity calls are given as the source filed them.

What was measured:
[1] = control 3'UTR Renilla luciferase suppression, dose response, counter-screen for Shn3 inhibitor project, cell-based, Clone20-Shn3RL, cherry-picked (AID 624133); assay type: functional
[2] = cytotoxicity toward NIH3T3 fibroblasts, dose response, counter-screen, cell-based, ATP luminescence, mouse fibroblasts (AID 2010); assay type: functional;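 further: cells exposed to compound for about 90 hours before reading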
[3] = inhibitors of intracellular T. cruzi replication, confirmation, NIH3T3 host cells, beta-gal luminescence (AID 2044); assay type: functional, cell-based;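 further: intracellular parasites grown in NIH/3T3 mouse fibroblasts as host cells; luminescent beta-galactosidase reporter signal from transgenic T. cruzi replicating inside host cells; inhibitors lower the luminescence signal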
[4] = HepG2 cell cytotoxicity, dose response, cytotoxicity control for Shn3 inhibitor project, CellTiter-Glo, cherry-picked (AID 624134); assay type: functional, cell-based
[5] = Shn3 3'UTR reporter inhibitors, dose response, cell-based, Clone20 osteoblasts, firefly luciferase, cherry-picked (AID 624132); assay type: functional;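 further: firefly luciferase luminescence from reporter carrying the Shn3 3'UTR in osteoblasts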
[6] = HEK293T cytotoxicity, dose response, cytotoxicity control for miR-122 modulator project, cell-based, inhibitor set, cherry-pick, set 2 (AID 720697); assay type: functional
[7] = HEK293T cytotoxicity, dose response, cytotoxicity control for miR-122 modulator project, cell-based, activator set, cherry-pick (AID 720690); assay type: functional;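 further: HEK293T human cells scored for general mammalian cytotoxicity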
[8] = target: T1, Leucine aminopeptidase (Plasmodium falciparum 3D7, UniProt Q8IL11); assay: P. falciparum M17LAP inhibitors, primary screen, biochemical, fluorogenic H-Leu-NHMec substrate, 1536-well (AID 1619); assay type: functional
T1 sequence (Q8IL11 whole entry): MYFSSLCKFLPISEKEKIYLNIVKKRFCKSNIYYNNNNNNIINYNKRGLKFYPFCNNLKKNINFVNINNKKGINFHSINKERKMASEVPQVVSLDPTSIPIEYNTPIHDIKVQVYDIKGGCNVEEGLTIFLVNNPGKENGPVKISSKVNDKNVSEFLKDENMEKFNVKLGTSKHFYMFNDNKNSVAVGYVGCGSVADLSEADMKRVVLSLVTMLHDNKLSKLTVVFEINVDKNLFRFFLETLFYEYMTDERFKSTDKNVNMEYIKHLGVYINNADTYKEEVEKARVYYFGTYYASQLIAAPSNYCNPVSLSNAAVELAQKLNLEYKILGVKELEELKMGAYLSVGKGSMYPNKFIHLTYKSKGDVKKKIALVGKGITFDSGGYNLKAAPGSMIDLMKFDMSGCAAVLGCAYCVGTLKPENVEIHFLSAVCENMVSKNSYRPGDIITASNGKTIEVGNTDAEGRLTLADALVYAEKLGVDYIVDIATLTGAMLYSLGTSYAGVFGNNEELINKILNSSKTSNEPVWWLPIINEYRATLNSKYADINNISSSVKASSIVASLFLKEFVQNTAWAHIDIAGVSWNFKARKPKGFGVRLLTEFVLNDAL

[9] = target: Cytochrome P450 2C19 (Homo sapiens, UniProt P33261); assay: Cytochrome panel assay with activity outcomes. Panel member name: p450-cyp2c19 Compounds with AC50 equal or less than 10 uM are considered active; assay type: functional
Cytochrome P450 2C19, sequence (P33261 whole entry): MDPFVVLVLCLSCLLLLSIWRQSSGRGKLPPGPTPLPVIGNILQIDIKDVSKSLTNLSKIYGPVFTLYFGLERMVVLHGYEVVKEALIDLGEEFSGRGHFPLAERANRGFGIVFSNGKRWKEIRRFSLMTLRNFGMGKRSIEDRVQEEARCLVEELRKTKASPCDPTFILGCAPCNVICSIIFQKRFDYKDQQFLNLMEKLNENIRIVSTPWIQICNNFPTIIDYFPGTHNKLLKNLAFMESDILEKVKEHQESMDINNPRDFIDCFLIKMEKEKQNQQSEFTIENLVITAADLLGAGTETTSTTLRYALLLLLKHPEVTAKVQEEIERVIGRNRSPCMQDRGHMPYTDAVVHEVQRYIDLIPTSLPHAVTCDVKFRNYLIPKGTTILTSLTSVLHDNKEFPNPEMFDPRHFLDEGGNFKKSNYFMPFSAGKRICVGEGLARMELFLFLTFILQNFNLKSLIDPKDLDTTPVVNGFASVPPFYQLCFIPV

[10] = target: T2, Corticotropin-releasing factor receptor 2/Corticotropin-releasing factor-binding protein (Homo sapiens, UniProt P24387+Q13324); assay: activators of CRF receptor 2 with binding protein – uHTS hits, confirmation (AID 602473); assay type: functional; settings: read-out: EC50_Mean
T2 sequence (Q13324 whole entry): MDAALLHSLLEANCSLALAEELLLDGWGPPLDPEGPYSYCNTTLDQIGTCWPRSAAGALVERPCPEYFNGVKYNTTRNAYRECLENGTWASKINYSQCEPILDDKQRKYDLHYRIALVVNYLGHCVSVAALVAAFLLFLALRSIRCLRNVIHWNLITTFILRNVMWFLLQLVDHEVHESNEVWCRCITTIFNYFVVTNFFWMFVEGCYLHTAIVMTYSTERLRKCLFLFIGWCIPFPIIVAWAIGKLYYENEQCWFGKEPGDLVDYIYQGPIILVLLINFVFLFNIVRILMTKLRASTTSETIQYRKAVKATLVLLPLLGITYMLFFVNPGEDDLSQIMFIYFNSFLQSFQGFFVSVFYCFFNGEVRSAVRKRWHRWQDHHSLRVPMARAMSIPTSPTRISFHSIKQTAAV
T2 sequence (P24387 whole entry): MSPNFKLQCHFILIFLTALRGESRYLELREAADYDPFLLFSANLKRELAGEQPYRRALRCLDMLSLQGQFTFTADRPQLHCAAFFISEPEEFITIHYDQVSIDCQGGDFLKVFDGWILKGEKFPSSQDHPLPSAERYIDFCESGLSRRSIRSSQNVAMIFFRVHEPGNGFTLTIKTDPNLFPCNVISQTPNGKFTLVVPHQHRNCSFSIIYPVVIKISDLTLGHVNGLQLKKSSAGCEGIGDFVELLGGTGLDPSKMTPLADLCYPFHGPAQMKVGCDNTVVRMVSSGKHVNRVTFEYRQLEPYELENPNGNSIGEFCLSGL

[11] = target: T2, Corticotropin-releasing factor receptor 2/Corticotropin-releasing factor-binding protein; assay: Dose Response confirmation of uHTS hits for small molecule antagonists of the CRF-binding protein and CRF-R2 receptor complex.; assay type: functional; settings: read-out: IC50_Mean
[12] = target: Cytochrome P450 2C9 (Homo sapiens, UniProt P11712)
Cytochrome P450 2C9, sequence (P11712 whole entry): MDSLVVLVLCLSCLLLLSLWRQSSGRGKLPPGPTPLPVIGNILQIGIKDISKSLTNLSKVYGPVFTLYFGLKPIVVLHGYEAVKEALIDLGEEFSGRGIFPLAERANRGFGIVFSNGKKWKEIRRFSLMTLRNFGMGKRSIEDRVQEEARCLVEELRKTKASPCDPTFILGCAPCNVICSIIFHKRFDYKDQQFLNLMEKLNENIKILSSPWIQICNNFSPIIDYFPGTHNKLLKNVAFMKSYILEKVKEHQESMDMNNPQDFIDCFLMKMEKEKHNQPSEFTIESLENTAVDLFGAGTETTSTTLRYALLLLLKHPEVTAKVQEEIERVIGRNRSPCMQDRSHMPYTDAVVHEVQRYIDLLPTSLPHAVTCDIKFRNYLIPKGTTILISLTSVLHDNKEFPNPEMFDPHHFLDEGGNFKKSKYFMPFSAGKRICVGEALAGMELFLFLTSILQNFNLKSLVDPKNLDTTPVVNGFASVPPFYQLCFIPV

[13] = target: Cytochrome P450 3A4 (Homo sapiens, UniProt P08684); settings: Potency;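 further: confirmatory qHTS run detecting inhibitors and substrates of CYP3A4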
Cytochrome P450 3A4, sequence (P08684 whole entry): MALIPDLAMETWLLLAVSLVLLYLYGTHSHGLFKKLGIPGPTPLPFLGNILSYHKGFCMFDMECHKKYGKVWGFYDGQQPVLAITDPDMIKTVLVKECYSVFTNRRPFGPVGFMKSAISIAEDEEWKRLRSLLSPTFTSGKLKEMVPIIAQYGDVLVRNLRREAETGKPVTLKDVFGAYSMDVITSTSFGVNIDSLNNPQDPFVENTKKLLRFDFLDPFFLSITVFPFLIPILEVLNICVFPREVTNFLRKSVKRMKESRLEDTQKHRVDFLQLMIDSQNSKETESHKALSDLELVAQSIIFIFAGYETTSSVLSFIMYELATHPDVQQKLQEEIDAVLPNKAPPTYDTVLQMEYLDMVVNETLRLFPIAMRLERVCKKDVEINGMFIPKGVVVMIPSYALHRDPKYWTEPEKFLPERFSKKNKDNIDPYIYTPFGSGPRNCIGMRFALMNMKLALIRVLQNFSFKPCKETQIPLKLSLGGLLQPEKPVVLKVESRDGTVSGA

[14] = target: Glyceraldehyde-3-phosphate dehydrogenase (Homo sapiens, UniProt P04406)
Glyceraldehyde-3-phosphate dehydrogenase, sequence (P04406 whole entry): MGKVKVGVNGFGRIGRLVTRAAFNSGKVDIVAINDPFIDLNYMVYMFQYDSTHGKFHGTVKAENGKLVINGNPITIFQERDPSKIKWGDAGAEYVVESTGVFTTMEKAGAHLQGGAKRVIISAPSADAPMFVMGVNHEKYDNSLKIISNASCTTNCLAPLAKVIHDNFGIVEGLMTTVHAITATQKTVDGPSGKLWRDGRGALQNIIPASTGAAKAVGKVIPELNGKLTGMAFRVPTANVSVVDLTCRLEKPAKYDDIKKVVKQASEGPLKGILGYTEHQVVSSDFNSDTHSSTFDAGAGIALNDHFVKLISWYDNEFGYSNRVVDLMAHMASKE

[15] = target: T3, Aminopeptidase N (Plasmodium falciparum FcB1/Columbia, UniProt O96935); assay: P. falciparum M1AAP inhibitors, biochemical, fluorogenic H-Leu-NHMec substrate, 1536-well (AID 1445); design: species or system Plasmodium falciparum 3D7, 3D7
T3 sequence (O96935 whole entry): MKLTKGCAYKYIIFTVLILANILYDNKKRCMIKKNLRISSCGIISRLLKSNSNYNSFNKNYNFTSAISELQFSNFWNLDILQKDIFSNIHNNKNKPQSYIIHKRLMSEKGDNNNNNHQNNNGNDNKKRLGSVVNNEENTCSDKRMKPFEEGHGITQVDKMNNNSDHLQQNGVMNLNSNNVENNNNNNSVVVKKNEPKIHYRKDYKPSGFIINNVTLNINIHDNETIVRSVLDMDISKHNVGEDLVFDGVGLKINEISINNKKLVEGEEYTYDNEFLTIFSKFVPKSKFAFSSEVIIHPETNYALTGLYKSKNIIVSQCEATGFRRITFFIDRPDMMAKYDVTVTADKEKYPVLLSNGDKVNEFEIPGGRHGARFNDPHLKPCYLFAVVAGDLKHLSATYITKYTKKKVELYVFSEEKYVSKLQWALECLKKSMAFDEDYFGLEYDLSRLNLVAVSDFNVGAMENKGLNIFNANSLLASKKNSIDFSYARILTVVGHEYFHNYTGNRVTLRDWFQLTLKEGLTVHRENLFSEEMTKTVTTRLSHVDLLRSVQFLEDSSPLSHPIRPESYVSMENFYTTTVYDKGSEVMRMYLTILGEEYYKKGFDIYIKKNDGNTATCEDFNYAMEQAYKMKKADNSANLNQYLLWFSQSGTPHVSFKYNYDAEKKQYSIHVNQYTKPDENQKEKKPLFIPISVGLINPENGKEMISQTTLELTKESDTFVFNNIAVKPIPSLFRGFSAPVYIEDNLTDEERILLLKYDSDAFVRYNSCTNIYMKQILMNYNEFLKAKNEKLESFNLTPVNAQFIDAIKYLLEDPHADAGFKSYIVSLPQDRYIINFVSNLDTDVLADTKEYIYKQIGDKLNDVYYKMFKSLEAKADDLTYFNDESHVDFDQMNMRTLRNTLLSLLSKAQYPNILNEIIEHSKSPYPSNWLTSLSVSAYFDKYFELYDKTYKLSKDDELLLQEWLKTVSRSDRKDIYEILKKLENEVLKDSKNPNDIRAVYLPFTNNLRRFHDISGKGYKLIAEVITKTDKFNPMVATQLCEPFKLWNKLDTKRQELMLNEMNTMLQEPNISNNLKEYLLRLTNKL

[16] = target: T4, Caspase-6 (Homo sapiens, UniProt P55212); assay: human caspase-6 inhibitors, dose response, biochemical, VEID-R110 fluorescence, cherry-pick (AID 720632)
T4 sequence (P55212 whole entry): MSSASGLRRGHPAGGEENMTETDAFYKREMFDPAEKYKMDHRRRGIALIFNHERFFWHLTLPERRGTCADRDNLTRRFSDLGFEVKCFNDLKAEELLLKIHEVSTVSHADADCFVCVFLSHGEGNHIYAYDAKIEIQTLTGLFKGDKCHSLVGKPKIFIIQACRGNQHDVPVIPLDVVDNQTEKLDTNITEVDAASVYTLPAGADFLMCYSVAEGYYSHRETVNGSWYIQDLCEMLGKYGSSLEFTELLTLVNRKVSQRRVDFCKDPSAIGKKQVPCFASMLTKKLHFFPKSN

CC1=Nc2nnnn2C(c2cccnc2)/C1=C(\O)OC1CCCCC1 (stereo not drawn)
AC50 [1]: 3.92 µM (active) | EC50 [2]: > 60 µM (not active) | EC50 [3]: 1.79 µM (active) | AC50 [4]: > 70 µM (inactive) | AC50 [5]: 3.23 µM (active)

COc1ccc(NC(=O)N(C)C[C@H]2Oc3cc(C#CCC(C)C)ccc3S(=O)(=O)N([C@@H](C)CO)C[C@H]2C)cc1
AC50 [6]: 6.46 µM (active) | AC50 [7]: 27 µM (active)

CCOC(=O)c1oc2c(O)c(O)ccc2c(=O)c1-c1nncn1-c1ccccc1
IC50 [8]: 6.58 µM (active)

Cc1cc2nc(C)n(CCCN)c2cc1C.Cl
AC50 [9]: inconclusive | EC50 [10]: > 53 µM (inactive) | IC50 [11]: > 47.1 µM (inactive) | AC50 [12]: inconclusive

OC(CN1CCNCC1)Cn1c2ccc(Br)cc2c2cc(Br)ccc21 (stereo not drawn)
AC50 [13]: 31.6 µM (inconclusive)

O=C(O)CS(=O)(=O)c1cccc(C(=O)O)c1
IC50 [14]: > 100 µM (not active)

N=C(CSc1nc(-c2ccccc2)c(-c2ccccc2)o1)NO
IC50 [8]: 7.64 µM (active)

CSc1nnc(-c2cc(Br)ccc2/N=C/c2c(C)nn(-c3ccccc3)c2O)c(O)n1
IC50 [8]: 24.8 µM (active)

Cc1noc(NS(=O)(=O)c2ccc(NC(=O)CSc3n[nH]c4c5ccccc5nc-4n3)cc2)c1C
IC50 [15]: 21.9 µM (active) | IC50 [8]: 2.57 µM (active)

Cc1ccc(N2C(=O)C(Cl)=C(N3CCN(c4ncccn4)CC3)C2=O)cc1
IC50 [14]: > 50 µM (inconclusive)

CC(C)c1nc(N(C)S(C)(=O)=O)nc(-c2ccc(F)cc2)c1/C=C/C(O)CC(O)CC(=O)O (stereo not drawn)
AC50 [13]: 39.8 µM (inconclusive)

C[C@@H]1CN(C2=C(Cl)C(=O)N(c3ccnc(Cl)c3)C2=O)CCN1
IC50 [14]: > 50 µM (inconclusive)

CN1C(=O)c2cc(NC(=O)Nc3ccccc3F)ccc2OC[C@@H]2O[C@@H](CC(=O)NCc3ccc(-c4ccccc4)cc3)CC[C@@H]21
AC50 [7]: 47.9 µM (active)

Cc1cc(NS(=O)(=O)c2ccc(NC(=O)COc3ccccc3[N+](=O)[O-])cc2)no1
AC50 [16]: 10.5 µM (active)
